The target in one data set is T1, CTX-M-15 (Escherichia coli, UniProt Q9EXV5).
T1 construct: expressed as native untagged proteins; made in house; host or cells: E. coli BL21(DE3)
The data set is described as follows: Beta-lactamase enzyme inhibition (IC50). It is filed as biochemical.

The target of the next data set is T2, SHV-5 (Klebsiella pneumoniae, UniProt P0A3M1).
T2 construct: expressed as native untagged proteins; made in house; host or cells: E. coli BL21(DE3)
Nature of the data set: Beta-lactamase enzyme inhibition (IC50). In kind it is biochemical.

The nature of data set [1]: Single ascending dose pharmacokinetics, Solutol HS-15:Water (10:90). In kind it is in vivo, Beagle dogs. Particulars: beagle, dog, plasma, iv, 10 mg/kg.
Protocol: The dosing formulation for Compound 1 was prepared in Solutol HS-15:Water (10:90 v/v) which provided dosing formulations of Compound 1 as a solution (homogeneous and chemically-stable up to a concentration of 30 mg/mL) and as a emulsion (physically- and chemically-stable at concentrations ranging from 31-100 mg/mL) with dose concentrations ranging from 2-60 mg/mL.
Data set [2] is described as follows: Metabolic stability in plasma. Particulars: cynomolgus, Monkey, test conc. 3 μM. In kind it is in vitro ADME.

T1 sequence (Q9EXV5 entry or part of it): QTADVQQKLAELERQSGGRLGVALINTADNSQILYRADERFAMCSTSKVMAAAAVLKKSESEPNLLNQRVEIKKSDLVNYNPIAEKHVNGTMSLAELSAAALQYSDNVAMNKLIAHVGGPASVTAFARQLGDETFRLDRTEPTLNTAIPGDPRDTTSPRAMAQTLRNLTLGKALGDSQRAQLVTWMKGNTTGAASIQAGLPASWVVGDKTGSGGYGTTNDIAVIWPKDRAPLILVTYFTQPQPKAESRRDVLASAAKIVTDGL
T2 sequence (P0A3M1 22-286): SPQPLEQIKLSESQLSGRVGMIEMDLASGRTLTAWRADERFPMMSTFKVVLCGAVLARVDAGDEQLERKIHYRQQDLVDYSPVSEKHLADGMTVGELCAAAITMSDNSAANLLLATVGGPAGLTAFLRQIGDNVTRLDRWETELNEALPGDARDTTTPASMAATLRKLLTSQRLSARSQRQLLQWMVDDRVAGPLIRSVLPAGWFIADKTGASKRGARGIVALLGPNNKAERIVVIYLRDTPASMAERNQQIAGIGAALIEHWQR
Protocol for CTX-M-15: (§1) E. coli BL21(DE3) bacterial cells carrying expression plasmids for the individual beta-lactamases (SHV-5, KPC-2, p99AmpC, CTX-M-15, CMY-2, IMP-1, NDM-1, VIM-2, OXA-1, and OXA 48; expressed as native untagged proteins), were grown in 1 L of Superbroth (Teknova Inc. Hollister, CA) supplemented with 100 μg/mL kanamycin selection and 1×5052 (0.5% glycerol, 0.05% glucose and 0.2% α-lactose) at 35° C. for 18-20 hours. Cells were harvested by centrifugation (4,000×g, 4° C., 20 min) and resuspended in 50 mL of 10 mM HEPES pH 7.5 ( 1/20 of the initial volume). The cells were lysed by sonication (5 pulses of 45 seconds) at 45 W on ice. The lysates were clarified by centrifugation at 10,000×g for 40 minutes at 4° C. […] Active fractions were pooled, concentrated, quantitated by BCA protein determination (Thermo Scientific, Rockford, IL), dialyzed into PBS and frozen at −80° C. in 20% glycerol until use.
(§2) An equal volume of diluted enzyme stock was added, and the plates were incubated at 37° C. for 15 min. […] Absorbance at 486 nm was immediately monitored for 10 min using a Biotek Powerwave XS2 microplate spectrophotometer using the GEN5 software package (Biotek Instruments, Winooski VT). […] Maximum rates of hydrolysis were compared to those in control wells (without inhibitors), and percentages of enzyme inhibition were calculated for each concentration of inhibitor. […]
Protocol for SHV-5: as §1, §2

For orientation: IC50 means the point on the concentration scale where inhibition reaches its midpoint. Read a high IC50 as weaker potency in that assay. By AUC(0-inf) is commonly meant the area under the concentration-time curve extrapolated to infinity. Higher therefore signals high exposure. The term Cmax denotes the highest concentration seen after dosing. Broadly, the half-life is the time in which the quantity being followed falls by half. Read a low half-life as fast loss. As for `CCC(=O)N[C@H]1Cc2cccc(C(=O)O)c2OB1O` [Compound 2, (R)-2-hydroxy-3-propionamido-3,4-dihydro-2H-benzo[e][1,2]oxaborinine-8-carboxylic acid], the values for the IC50 on CTX-M-15 and against SHV-5 were 18 nM and 368 nM, respectively. This compound gave a total exposure AUC(0-inf) in data set [1] of 39300 ng·h/mL. In addition, in data set [1], the Cmax was determined as 54.5 µg/mL. For the same compound, the half-life at 3 μM in data set [2] is above 2 h.

The values above are taken from patent US12544395B2, “Combination compositions comprising a beta-lactamase inhibitor and uses thereof” (priority 2018, dated 2026).
